Measured values taken from publication PMC9481570, “A small molecule antagonist of SMN disrupts the interaction between SMN and RNAP II” (Nature Communications, 2022).

What was measured:
SMN_W102F = molecular target: T1, SMN_W102F (Homo sapiens, UniProt Q16637, W102F); test: ITC binding to SMN Tudor mutant W102F; conditions: Fig. 3d
T1 construct: SMN (aa 82–147); His (N, cleaved yes); made in house; host or cells: E. coli BL21 (DE3) Codon plus RIL
From the text: (§1) The coding DNA fragments of following Tudor domains were cloned into pET28-MHL vector: SMN (aa 82–147), UHRF1 (aa 126–285), SMNDC1 (aa 53–130), TDRD3 (aa 554–611), SND1 (aa 650–910), TDRD2 (aa 327–420), FXR1 (aa 2–132), PHF1 (aa 28–87), SGF29 (aa 115–293), JMJD2A (aa 897–1101), 53BP1 (aa 1483–1606), SETDB1 (aa 190–410), LBR (aa 1–67), ZGPAT (aa 120–271). The coding regions of chromodomain of CBX7 (aa 8–62), PWWP domain of DNMT3A (aa 275–417), WD40 repeats of WDR5 (aa 24–334) and CW domain of ZCWPW2 (aa 21–78) were also subcloned into pET28-MHL vector to generate N-terminally His-tagged fusion protein. The MBT repeats of L3MBTL1 (aa 200–522) and L3MBTL2 (aa 170–625) were subcloned into pET28GST-LIC vector to generate N-terminally GST-His-tagged fusion protein. All the plasmids were generated by ligase independent cloning (Vazyme Biotech, C112 or ABclonal Technology, RK21020). […] The molecular weight of all protein samples was measured by mass spectrometry.
(§2) For the ITC measurement, the concentrated proteins were diluted into 20 mM Tris-HCl, pH 7.5, 150 mM NaCl (ITC buffer); the lyophilized compounds were dissolved in the same buffer, and the pH value was adjusted by adding 2 M NaOH or 2 M HCl. […] Compound concentrations were calculated from the mass and the volume of the solvent. […]

L3MBTL1 (MBT) = molecular target: T2, L3MBTL1 (MBT) (Homo sapiens, UniProt Q9Y468); test: ITC binding to MBT repeats of L3MBTL1
T2 construct: L3MBTL1 (aa 200–522); GST-His (N, cleaved yes); made in house; host or cells: E. coli BL21 (DE3) Codon plus RIL
From the text: as §1, §2

T2 sequence (Q9Y468 268-590): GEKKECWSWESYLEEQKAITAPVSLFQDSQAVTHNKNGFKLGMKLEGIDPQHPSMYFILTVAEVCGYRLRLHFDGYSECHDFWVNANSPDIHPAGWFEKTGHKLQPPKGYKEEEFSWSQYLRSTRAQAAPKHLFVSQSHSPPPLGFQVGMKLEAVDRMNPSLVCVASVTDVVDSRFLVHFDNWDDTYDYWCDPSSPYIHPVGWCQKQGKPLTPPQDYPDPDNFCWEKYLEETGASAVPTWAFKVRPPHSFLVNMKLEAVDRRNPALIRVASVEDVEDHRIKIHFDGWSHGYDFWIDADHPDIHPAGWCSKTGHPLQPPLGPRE
T1 sequence (Q16637 82-147 W102F): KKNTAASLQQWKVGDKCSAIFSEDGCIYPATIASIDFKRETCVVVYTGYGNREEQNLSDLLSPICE

For Cn1c2c(c(=N)c3c1CCC3)CCC2 [Compound 1, 4-methyl-2,3,4,5,6,7-hexahydrodicyclopenta[b,e]pyridin-8(1H)-imine], the Kd (SMN_W102F) was greater than 100 µM, the Kd (L3MBTL1 (MBT); ITC, Fig. 1c) was greater than 100 µM and the “ITC binding curve, MBT repeats of L3MBTL1 (in words)” value (L3MBTL1 (MBT); Supplementary Fig. 2f) was “Weak binding”.
